Reference: patent US20230391871A1, “MONOAMINE OXIDASE BLOCKADE THERAPY FOR TREATING CANCER THROUGH REGULATING TUMOR ASSOCIATED MACROPHAGES (TAMS)” (THE REGENTS OF THE UNIVERSITY OF CALIFORNIA, priority 2020, published 2023)
Like-named read-outs stand apart in the source and are kept apart here.

Test system: MC38 colon cancer
Description: (a) Experimental design. Wildtype BMDMs were stimulated with IL-4/IL-13 with or without MAOI treatment. MAOIs (monoamine oxidase inhibitors) studied were phenelzine (Phe: 20 μM), clorgyline (Clo: 20 μM), moclobemide (Moc: 200 μM), and pirlindole (Pir: 20 μM). NT, no MAOI treatment. (b) FACS analyses of ROS levels in BMDMs. (c) FACS analyses of CD206 expression on BMDMs. (d,e) QPCR analyses of Chi313 (d) and Arg1 (e) mRNA expression in BMDMs. f-j, Studying the TAM-related cancer immunotherapy potential of MAOI treatment in a B16-OVA melanoma syngeneic mouse tumour model (n=7-8). (f) Experimental design. B6 wildtype mice were treated with clodronate liposomes (Clod) to serve as TAM-depleted experimental mice, or treated with vehicle liposomes (Veh) to serve as TAM-intact control mice. Phe, phenelzine treatment: NT, no phenelzine treatment. (g) Tumour growth. (h) Tumour volume at day 18. (i) FACS analyses of CD206 expression on TAMs of TAM-intact experimental mice. (j) FACS analyses of intracellular Granzyme B production in tumour-infiltrating CD8^+ T cells of all experimental mice. k-o, Studying the cancer therapy potential of MAOI treatment in combination with anti-PD-1 treatment in the B16-OVA melanoma and MC38 colon cancer syngeneic mouse tumour models (n=5). (k) Experimental design. […]
Tumour-bearing mice treated with vehicle liposomes (Veh) were included as a control. […] FACS quantifications of TAMs (gated as CD45.2^+CD11b^+Ly6G^−Ly6C^−/lowF4/80^+ cells of total TIIs) are presented (n=7-8). b-f, Studying B16-OVA and MC38 tumour growth in B6 wildtype mice with or without phenelzine treatment (Phe or NT). […]
B16-OVA melanoma cells (1×10^6 per animal) or MC38 colon cancer cells (5×10^5 per animal) were subcutaneously (s.c.) injected into experimental mice to form solid tumours. […] During an experiment, tumour growth was monitored twice per week by measuring tumour size using a Fisherbrand™ Traceable™ digital caliper (Thermo Fisher Scientific): tumour volumes were calculated by formula 1/2×L×W^2.

NNCCc1ccccc1 [phenelzine]
progression of pre-established MC38 solid tumours (B6 wildtype mice, phenelzine vs no treatment (FIG. 11e,f)): effectively suppressed
growth of MC38 tumours in immunodeficient NSG mice (NSG mice, phenelzine vs no treatment): did not suppress
progression of pre-established MC38 solid tumours (combination study with anti-PD-1 antibody or isotype control (FIG. 5n,o), level comparable to anti-PD-1 alone): significantly suppressed
